The results in this text go back to ChEMBL document CHEMBL1158628, “Quinlobelane: a water-soluble lobelane analogue and inhibitor of VMAT2” (Bioorg Med Chem Lett, 2010).

For series [1], the target named is T1, Synaptic vesicular amine transporter (Rattus norvegicus, UniProt Q01827). The series is described as follows: Inhibition of VMAT2-mediated [3H]dopamine uptake in rat synaptic vesicle membranes. The class given is cell membranes, Membrane.
The target in series [2] is T1, Synaptic vesicular amine transporter. The series is described as follows: Displacement of [3H]DTBZ from VMAT2 in rat synaptic vesicle membranes after 30 mins by liquid scintillation counting. The class given is cell membranes, Membrane.
Series [3] in a line: Aqueous solubility in water. Type of series: physicochemical.

T1 sequence (Q01827 whole entry): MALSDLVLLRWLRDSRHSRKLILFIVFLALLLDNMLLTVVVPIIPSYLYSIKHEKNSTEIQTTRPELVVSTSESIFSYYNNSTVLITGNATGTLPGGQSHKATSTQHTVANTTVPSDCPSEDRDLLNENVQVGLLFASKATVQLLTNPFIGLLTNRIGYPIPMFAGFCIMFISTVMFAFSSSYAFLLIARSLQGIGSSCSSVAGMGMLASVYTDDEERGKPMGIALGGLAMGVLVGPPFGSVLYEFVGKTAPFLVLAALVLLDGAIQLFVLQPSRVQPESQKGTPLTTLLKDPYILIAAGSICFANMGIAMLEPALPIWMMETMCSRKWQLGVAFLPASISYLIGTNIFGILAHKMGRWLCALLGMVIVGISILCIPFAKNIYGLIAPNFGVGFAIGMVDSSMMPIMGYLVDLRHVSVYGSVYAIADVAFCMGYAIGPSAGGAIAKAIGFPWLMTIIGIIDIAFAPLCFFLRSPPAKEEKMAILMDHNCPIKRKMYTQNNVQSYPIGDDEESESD

Usually Ki stands for a dissociation constant, usually derived from enzyme kinetics or from competition with a known ligand. Lower therefore signals tighter binding. On to `CN1[C@@H](CCc2ccc3ccccc3n2)CCC[C@H]1CCc1ccc2ccccc2n1`, for which the inhibition constant (Ki) in series [1] came to 0.067 µM; in series [2], 0.96 µM.

As to `CN1[C@@H](CCc2cccnc2)CCC[C@H]1CCc1cccnc1`, the inhibition constant Ki came to 3.72 µM in series [1] and 33.3 µM in series [2].

As usually defined, the solubility is how much of the substance goes into solution per volume. With `CN1[C@@H](CCc2ccnc3ccccc23)CCC[C@H]1CCc1ccnc2ccccc12.Cl` [QUINLOBELANE], the Ki in series [1] was determined as 0.051 µM; in series [2] it was 2.64 µM. For the same molecule, the solubility in series [3] was no less than 20 mg/mL.

With `CN1[C@@H](CCc2c[nH]c3ccccc23)CCC[C@H]1CCc1c[nH]c2ccccc12`, the inhibition constant Ki was 2.13 µM in series [1] and 26 µM in series [2].

In the case of `CN1[C@@H](CCc2ccccc2)CCC[C@H]1CCc1ccccc1.O=S(=O)(O)O`, the solubility in series [3] was found to be 0.3 mg/mL.

Regarding `CN1[C@@H](CCc2ccncc2)CCC[C@H]1CCc1ccncc1`, the Ki turned out to be 5.23 µM in series [1] and 5.87 µM in series [2].
